These results are taken from US11123439B2, “Antibody drug conjugates (ADCS) and antibody prodrug conjugates (APDCS) with enzymatically cleavable groups” (Bayer Pharma Aktiengesellschaft, priority 2015, dated 2021).

This series addresses T1, legumain (Homo sapiens, UniProt Q99538).
T1 construct: purchased R&D Systems 2199-CY
T1 sequence (Q99538 18-323 limits assumed): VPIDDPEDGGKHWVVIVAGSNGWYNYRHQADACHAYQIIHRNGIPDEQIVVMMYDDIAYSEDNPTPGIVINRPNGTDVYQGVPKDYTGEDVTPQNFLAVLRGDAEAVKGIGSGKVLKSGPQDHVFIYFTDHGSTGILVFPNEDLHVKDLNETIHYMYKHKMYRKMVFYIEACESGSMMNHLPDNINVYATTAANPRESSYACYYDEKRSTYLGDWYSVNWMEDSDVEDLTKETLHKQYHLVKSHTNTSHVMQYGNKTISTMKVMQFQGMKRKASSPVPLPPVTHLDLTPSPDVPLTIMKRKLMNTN
Kind of series: Legumain assay (enzymatic cleavage of prodrug). Type of series: biochemical. The settings on record: recombinant human legumain, rh legumain 1 ng/μl, 50 mM MES buffer, 250 mM NaCl, pH 5.0, read-out: half-life of legumain cleavage to the target compound (converted). As to the method: The legumain assay was conducted with recombinant human enzyme. The rh legumain enzyme solution (catalogue #2199-CY, R&D Systems) was diluted to the desired concentration in 50 mM Na acetate buffer/100 mM NaCl, pH4.0 and preincubated at 37° C. for 2 h. rh legumain was then adjusted to a final concentration of 1 ng/μl in 50 mM MES buffer, 250 mM NaCl, pH 5.0. For every legumain-cleavable prodrug to be examined, a mixture was made up in a micro reaction vessel (0.5 ml, from Eppendorf). For this purpose, the substrate solution was adjusted to the desired concentration (double concentration) with 50 mM MES buffer, 250 mM NaCl, pH 5.0. For the kinetic measurement of the enzymatic reaction, 250 μl of the legumain solution were first initially charged and the enzyme reaction was started by adding 250 μl of the substrate solution (final concentration: single concentration). At different times, 50 μL samples were taken. This sample was admixed immediately with 100 μl of ice-cold methanol in order to stop the enzymatic reaction and then frozen at −20° C. The times selected for sampling were after 0.5 h, 1 h, 3 h and 24 h. The samples were then analysed by means of RP-HPLC analysis and by LC-MS analysis. The determination of the toxophore released enabled the determination of the half-life t1/2 of the enzymatic reaction. […]

By half-life is commonly meant the time in which the quantity being followed falls by half. As to `CNC(=O)[C@H](CCN(C(=O)CO)[C@@H](c1cc(-c2cc(F)ccc2F)cn1Cc1ccccc1)C(C)(C)C)NC(=O)[C@H](CC(N)=O)NC(=O)[C@H](C)NC(=O)[C@H](C)NC(=O)Cc1ccncc1` [Compound A, N-(Pyridin-4-ylacetyl)-L-alanyl-L-alanyl-N^1-[(2S)-4-[{(1R)-1-[1-benzyl-4-(2,5-difluorophenyl)-1H-pyrrol-2-yl]-2,2-dimethylpropyl}(glycoloyl)amino]-1-(methylamino)-1-oxobutan-2-yl]-L-aspartamide], the half-life is 1.1 h.
